Measured values from patent US20260076955A1, “JOINT CAVITY DRUG ADMINISTRATION METHOD, AND USE THEREOF” (TENNOR THERAPEUTICS (SUZHOU) LIMITED, priority 2023, published 2026).
Values after ≈ are worked out from the molar mass of the structure shown. Read-outs that look alike come from different tables or passages of the source. Marks after values point to notes of the source that are not given here.

Assays:
[1] = system: methicillin-sensitive Staphylococcus aureus (MSSA, ATCC6538 strain); assay: Mouse metal implant joint infection model, colony counts from pin and femur; format: in vivo; details: for Femur Mean Log10 CFU / Log10 CFU Reduction vs. day 14 control, Femur / Log10 CFU Reduction vs. day 14 control, Pin / Pin Mean Log10 CFU: day 14
Source text: In this example, female mice aged 8-10 weeks were used and randomly grouped. Before the start of drug administration treatment, each mouse underwent a surgery involving the placement of a metal implant into the femoral-tibial joint and an intraarticular inoculation of methicillin-sensitive Staphylococcus aureus (MSSA, ATCC6538 strain) at the surgical site. Therapeutic agents were formulated as follows: • (1) compound of formula (I): when used as a therapeutic agent for intraarticular injection (IA), the compound was dissolved in 5% dextrose in water (D5W) and formulated to the required concentrations; when used as a therapeutic agent for intraperitoneal injection (IP), the compound was dissolved in a solvent system of ethanol/NaHCO3/6% Cremophor and formulated to the required concentrations; (2) vancomycin: the drug was dissolved in sterile water for injection (WFI) and formulated to the required concentration to obtain a therapeutic agent for intraarticular injection. [table] Samples were obtained from the surgical and inoculation sites of the mice, and colony counts are performed on the agar plates. The number of colonies converted to CFU/tissue by multiplying the number of colonies by the volume of the homogenate spotted and the dilution at which the colonies were counted (5-50 colonies/spot). The resulting value was expressed as log10 CFU/tissue and used to calculate the mean and standard deviations (the results are shown in Table 1).

[2] = system: methicillin-resistant Staphylococcus aureus (MRSA, ATCC43300 strain); assay: Rat PJI model: CFU count, scanning electron microscopy of prosthesis, H&E pathology of synovium; format: in vivo; details: for Tissue bacterial load in bone tissue / Tissue bacterial load in prosthesis / Tissue bacterial load in soft tissue: QD × 14 days, sample D 21
Source text: In this example, rats aged about 17 weeks were used. Before the start of drug administration treatment, each rat underwent an aseptic surgery to insert an artificial prosthesis into the knee joint, followed by an intraarticular inoculation of methicillin-resistant Staphylococcus aureus (MRSA, ATCC43300 strain) at the surgical site.

[3] = system: MRSA ATCC43300 strain; assay: MIC (minimum inhibitory concentration) determination; format: cell-based; details: Staphylococcus aureus, read-out: MIC (minimum inhibitory concentration)
[4] = system: Staphylococcus epidermidis; assay: Biofilm bactericidal activity MBBC90; format: cell-based; details: against Staphylococcus epidermidis
[5] = system: Staphylococcus aureus; assay: MIC90; format: cell-based; details: against Staphylococcus aureus
[6] = system: Staphylococcus epidermidis; assay: MIC90; format: cell-based; details: against Staphylococcus epidermidis
[7] = system: Staphylococcus aureus; assay: Biofilm bactericidal activity MBBC90; format: cell-based; details: against Staphylococcus aureus
[8] = Pharmacokinetics after single intraarticular injection in beagle dogs (plasma and synovial fluid); format: in vivo; details: both sexes, dog, single intraarticular injection 3 mg/kg; for AUC(0-t) / Cmax / Tmax / half-life: mean
Method: In this example, an experiment with an animal model of male and female beagle dogs was used to evaluate the pharmacokinetic behavior after a single intraarticular injection of the compound of formula (I) in the knee. A total of 6 beagle dogs (3 males and 3 females) were used for this experiment. The experimental animals received a single intraarticular injection of 3 mg/kg of the compound of formula (I) in the left joint, and a single intraarticular injection of 0.1 mL/kg of the vehicle (injection solution of 5% dextrose in water) in the right joint. From the experimental animals, plasma samples were collected before administration (0 hour) and at 0.25 hour (15 minutes), 3 hours, 9 hours, 12 hours, 24 hours, 36 hours, 48 hours, and 72 hours after administration, and left knee synovial fluid samples were collected at 12 hours, 36 hours, and 60 hours after administration. The concentrations of the compound of formula (I) in the plasma and synovial fluid samples were determined using high-performance liquid chromatography-tandem mass spectrometry (LC-MS/MS).

[9] = 45 mg/kg, 25 μL IA, QD × 7 days
[10] = 5 mg/kg, 0.2 mL IP, BID × 7 days
[11] = 15 mg/kg, 0.2 mL IP, BID × 7 days
[12] = 15 mg/kg, 25 μL IA, QD × 7 days
[13] = 45 mg/kg, 0.2 mL IP, BID × 7 days
[14] = intraarticular administration, all IA dose groups (5-45 mg/kg)
[15] = group T2.5, 2.5 mg/kg intraarticular
[16] = group T5, 5 mg/kg intraarticular
[17] = group T10, 10 mg/kg intraarticular

Compound: CN[C@H](CC(C)C)C(=O)N[C@H]1C(=O)N[C@@H](CC(N)=O)C(=O)N[C@H]2C(=O)N[C@H]3C(=O)N[C@H](C(=O)N[C@H](C(=O)O)c4cc(O)cc(O)c4-c4cc3ccc4O)[C@H](O)c3ccc(c(Cl)c3)Oc3cc2cc(c3O[C@@H]2O[C@H](CO)[C@@H](O)[C@H](O)[C@H]2O[C@H]2C[C@](C)(N)[C@H](O)[C@H](C)O2)Oc2ccc(cc2Cl)[C@H]1O [Vancomycin, reference compound]
- Femur Mean Log10 CFU [1, 9]: 6.08 Log10 CFU
- Log10 CFU Reduction vs. day 14 control, Femur [1, 9]: −0.80 Log10 CFU
- Log10 CFU Reduction vs. day 14 control, Pin [1, 9]: −1.28 Log10 CFU
- Pin Mean Log10 CFU [1, 9]: 3.49 Log10 CFU
- Tissue bacterial load in bone tissue ([2]; group Van, 44 mg/kg): 11733 ± 8583 CFU
- Tissue bacterial load in prosthesis ([2]; group Van, 44 mg/kg): 1783 ± 1136 CFU
- Tissue bacterial load in soft tissue ([2]; group Van, 44 mg/kg): 1050 ± 1174 CFU
- pathological H&E staining of the synovial soft tissue (FIG. 2B) ([2]; vancomycin group, 44 mg/kg): a significant reduction in inflammatory cell infiltration in the synovium
- scanning electron microscopy observation of prosthesis (FIG. 2A) ([2]; vancomycin treatment group, 44 mg/kg): a relatively large number of bacteria still remained
- MIC [3]: 0.5 µg/mL (≈ 0.345 µM)

Compound: CO[C@H]1/C=C/O[C@@]2(C)Oc3c(C)c(O)c4c(O)c(c(/C=N/N5CCC(N(C)C6([C@@H]7CCN(c8c(F)cn9c(=O)c(C(=O)O)cc(C%10CC%10)c9c8C)C7)CC6)CC5)c(O)c4c3C2=O)NC(=O)/C(C)=C\C=C\[C@H](C)[C@H](O)[C@@H](C)[C@@H](O)[C@@H](C)[C@H](OC(C)=O)[C@@H]1C [compound of formula (I)]
- biofilm bactericidal activity MBBC90 [4]: 250 ng/mL
- Femur Mean Log10 CFU [1, 10]: 6.51 Log10 CFU
- Log10 CFU Reduction vs. day 14 control, Femur [1, 10]: −0.37 Log10 CFU
- Log10 CFU Reduction vs. day 14 control, Pin [1, 10]: −0.51 Log10 CFU
- Pin Mean Log10 CFU [1, 10]: 4.26 Log10 CFU
- Femur Mean Log10 CFU ([1]; 5 mg/kg, 25 μL IA, QD × 7 days): 5.17 Log10 CFU
- Log10 CFU Reduction vs. day 14 control, Femur ([1]; 5 mg/kg, 25 μL IA, QD × 7 days): −1.71 Log10 CFU
- Log10 CFU Reduction vs. day 14 control, Pin ([1]; 5 mg/kg, 25 μL IA, QD × 7 days): −2.50 Log10 CFU
- Pin Mean Log10 CFU ([1]; 5 mg/kg, 25 μL IA, QD × 7 days): 2.27 Log10 CFU
- Femur Mean Log10 CFU [1, 11]: 5.33 Log10 CFU
- Log10 CFU Reduction vs. day 14 control, Femur [1, 11]: −1.55 Log10 CFU
- Log10 CFU Reduction vs. day 14 control, Pin [1, 11]: −2.25 Log10 CFU
- Pin Mean Log10 CFU [1, 11]: 2.52 Log10 CFU
- Femur Mean Log10 CFU [1, 12]: 3.76 Log10 CFU
- Log10 CFU Reduction vs. day 14 control, Femur [1, 12]: −3.12 Log10 CFU
- Log10 CFU Reduction vs. day 14 control, Pin [1, 12]: −2.54 Log10 CFU
- Pin Mean Log10 CFU [1, 12]: 2.23 Log10 CFU
- Femur Mean Log10 CFU [1, 13]: 3.42 Log10 CFU
- Log10 CFU Reduction vs. day 14 control, Femur [1, 13]: −3.46 Log10 CFU
- Log10 CFU Reduction vs. day 14 control, Pin [1, 13]: −2.72 Log10 CFU
- Pin Mean Log10 CFU [1, 13]: 2.05 Log10 CFU
- Femur Mean Log10 CFU [1, 9]: 3.46 Log10 CFU
- Log10 CFU Reduction vs. day 14 control, Femur [1, 9]: −3.42 Log10 CFU
- Log10 CFU Reduction vs. day 14 control, Pin [1, 9]: −2.72 Log10 CFU
- Pin Mean Log10 CFU [1, 9]: 2.05 Log10 CFU
- mean femur colony counts lower than those in the untreated control animals [1, 14]: 1.71-3.42 log10 CFU
- mean pin colony counts lower than those in the untreated control animals [1, 14]: 2.5-2.72 logo CFU
- MIC90 [5]: 0.015 µg/mL
- MIC90 [6]: 0.008 µg/mL
- biofilm bactericidal activity MBBC90 [7]: 2000 ng/mL
- Tissue bacterial load in bone tissue [2, 15]: 7083 ± 6280 CFU
- Tissue bacterial load in prosthesis [2, 15]: 550 ± 207 CFU
- Tissue bacterial load in soft tissue [2, 15]: 9717 ± 1387 CFU
- Tissue bacterial load in bone tissue [2, 16]: 1383 ± 1068 CFU
- Tissue bacterial load in prosthesis [2, 16]: 0 *** CFU
- Tissue bacterial load in soft tissue [2, 16]: 5433 ± 3194 CFU
- Tissue bacterial load in bone tissue [2, 17]: 2400 ± 1655 CFU
- Tissue bacterial load in prosthesis [2, 17]: 0 *** CFU
- Tissue bacterial load in soft tissue [2, 17]: 1517 ± 1011 CFU
- pathological H&E staining of the synovial soft tissue (FIG. 2B) ([2]; high-dose group, 10 mg/kg): a significant reduction in inflammatory cell infiltration in the synovium
- scanning electron microscopy observation of prosthesis (FIG. 2A) ([2]; high-dose group, 10 mg/kg): individual cocci embedded therein
- scanning electron microscopy observation of prosthesis (FIG. 2A) ([2]; low-dose group, 2.5 mg/kg): the formation of a relatively large number of colonies could still be observed
- scanning electron microscopy observation of prosthesis (FIG. 2A) ([2]; medium-dose group, 5 mg/kg): individual bacteria still present
- MIC ([3]; MRSA ATCC43300 strain): 0.032 µg/mL
- AUC(0-t) ([8]; plasma): 20.8 ± 7.15 µg·h/mL
- Cmax ([8]; plasma): 736 ± 247 ng/mL
- Tmax ([8]; plasma): 24 h
- half-life ([8]; plasma): 12 h
- AUC(0-t) ([8]; synovial fluid): 1000 ± 1050 µg·h/mL
- Cmax ([8]; synovial fluid): 77400 ± 81900 ng/mL
- Tmax ([8]; synovial fluid): 12 h
- half-life ([8]; synovial fluid): 6.81 h
- Kp ([8]; synovial fluid/plasma, read-out: AUC ratio = AUC0-last in synovial fluid/AUC0-last in plasma): 46.1
